Our source for the DC50 values is patent publication US20260053932A1, “COMPOUNDS AND METHODS FOR THE TARGETED DEGRADATION OF ANDROGEN RECEPTOR AND ASSOCIATED METHODS OF USE” (Arvinas Operations, Inc., priority 2020, published 2026).

In this test the test system is androgen receptor (AR) in LNCaP and/or VCaP cells. Briefly: Androgen Receptor ELISA assay (AR degradation). Conditions: LNCaP and/or VCaP cells; 5 hours incubation; media with R1881; read-out: DC50 Code* (degradation of AR ELISA). Type of test: cell-based. The procedure, abridged: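 VCaP cells grown ≥3 days, then treated 5 h with compound in media containing 1 nM R1881 (10× stock). Cells lysed and AR quantified by sandwich ELISA (mouse AR detection Ab, HRP anti-mouse, TMB). DC50 and Dmax derived from AR degradation.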
For orientation: ELISA stands for enzyme-linked immunosorbent assay.

As for `COc1cc(O[C@H]2CC[C@H](NC(=O)c3cnc(N4CCC(CN(C(C)=O)[C@H]5C[C@H](Oc6ccc7c(c6)C(=O)N(C6CCC(=O)NC6=O)C7=O)C5)CC4)cn3)CC2)ccc1C#N` (stereo partly drawn) [Compound 29, N-((1r,4r)-4-(4-cyano-3-methoxyphenoxy)cyclohexyl)-5-(4-((N-((1r,3r)-3-((2-(2,6-dioxopiperidin-3-yl)-1,3-dioxoisoindolin-5-yl)oxy)cyclobutyl)acetamido)methyl)piperidin-1-yl)pyrazine-2-carboxamide], the DC50 (usually the concentration giving 50% degradation) was less than 1 nM.

Take `N#Cc1ccc(O[C@H]2CC[C@H](NC(=O)c3cnc(N4CCC(CN(C5CCOCC5)[C@H]5C[C@H](Oc6ccc7c(c6)C(=O)N(C6CCC(=O)NC6=O)C7=O)C5)CC4)cn3)CC2)cc1Cl` (stereo partly drawn) [Compound 30, N-((1r,4r)-4-(3-chloro-4-cyanophenoxy)cyclohexyl)-5-(4-((((1r,3r)-3-((2-(2,6-dioxopiperidin-3-yl)-1,3-dioxoisoindolin-5-yl)oxy)cyclobutyl) (tetrahydro-2H-pyran-4-yl)amino)methyl)piperidin-1-yl)pyrazine-2-carboxamide]: the DC50 is less than 1 nM.

Take `COc1cc(O[C@H]2CC[C@H](NC(=O)c3cnc(N4CCC(CN(C(C)C)[C@H]5CC[C@H](Oc6ccc7c(c6)C(=O)N(C6CCC(=O)NC6=O)C7=O)CC5)CC4)cn3)CC2)ccc1C#N` (stereo partly drawn) [Compound 31, N-((1r,4r)-4-(4-cyano-3-methoxyphenoxy)cyclohexyl)-5-(4-((((1r,4r)-4-((2-(2,6-dioxopiperidin-3-yl)-1,3-dioxoisoindolin-5-yl)oxy)cyclohexyl) (isopropyl)amino)methyl)piperidin-1-yl)pyrazine-2-carboxamide]: the DC50 was less than 1 nM.

Turning to `COc1cc(O[C@H]2CC[C@H](NC(=O)c3cnc(N4CCC(CN(C(C)C)[C@H]5C[C@H](Oc6ccc7c(c6)C(=O)N(C6CCC(=O)NC6=O)C7=O)C5)CC4)cn3)CC2)ccc1C#N` (stereo partly drawn) [Compound 32, N-((1r,4r)-4-(4-cyano-3-methoxyphenoxy)cyclohexyl)-5-(4-((((1r,3r)-3-((2-(2,6-dioxopiperidin-3-yl)-1,3-dioxoisoindolin-5-yl)oxy)cyclobutyl) (isopropyl)amino)methyl)piperidin-1-yl)pyrazine-2-carboxamide], the DC50 was less than 1 nM.

Consider `CCN(CC1CCN(c2cnc(C(=O)N[C@H]3CC[C@H](Oc4ccc(C#N)c(OC)c4)CC3)cn2)CC1)[C@H]1C[C@H](Oc2ccc3c(c2)C(=O)N(C2CCC(=O)NC2=O)C3=O)C1` (stereo partly drawn) [Compound 33, N-((1r,4r)-4-(4-cyano-3-methoxyphenoxy)cyclohexyl)-5-(4-((((1r,3r)-3-((2-(2,6-dioxopiperidin-3-yl)-1,3-dioxoisoindolin-5-yl)oxy)cyclobutyl)(ethyl)amino)methyl)piperidin-1-yl)pyrazine-2-carboxamide], for which the DC50 is less than 1 nM.

Take `COc1cc(O[C@H]2CC[C@H](NC(=O)c3cnc(N4CCC(CN(C(C)C)[C@H]5C[C@H](Oc6ccc7c(c6)C(=O)N(C6CCC(=O)NC6=O)C7)C5)CC4)cn3)CC2)ccc1C#N` (stereo partly drawn) [Compound 34, N-((1r,4r)-4-(4-cyano-3-methoxyphenoxy)cyclohexyl)-5-(4-((((1r,3r)-3-((2-(2,6-dioxopiperidin-3-yl)-3-oxoisoindolin-5-yl)oxy)cyclobutyl) (isopropyl)amino)methyl)piperidin-1-yl)pyrazine-2-carboxamide]: the DC50 is less than 1 nM.

Regarding `CC(C)N(CC1CCN(c2cnc(C(=O)N[C@H]3CC[C@H](Oc4ccc(C#N)c(Cl)c4)CC3)cn2)CC1)[C@H]1CC[C@H](Oc2ccc3c(c2)C(=O)N(C2CCC(=O)NC2=O)C3=O)CC1` (stereo partly drawn) [Compound 35, N-((1r,4r)-4-(3-chloro-4-cyanophenoxy)cyclohexyl)-5-(4-((((1r,4r)-4-((2-(2,6-dioxopiperidin-3-yl)-1,3-dioxoisoindolin-5-yl)oxy)cyclohexyl) (isopropyl)amino)methyl)piperidin-1-yl)pyrazine-2-carboxamide], the DC50 was less than 1 nM.

As to `COc1cc(O[C@H]2CC[C@H](NC(=O)c3cnc(N4CC5(CC(CN(C(C)C)[C@H]6C[C@H](Oc7ccc8c(c7)C(=O)N(C7CCC(=O)NC7=O)C8=O)C6)C5)C4)nc3)CC2)ccc1C#N` (stereo partly drawn) [Compound 36, N-((1r,4r)-4-(4-cyano-3-methoxyphenoxy)cyclohexyl)-2-(6-((((1r,3r)-3-((2-(2,6-dioxopiperidin-3-yl)-1,3-dioxoisoindolin-5-yl)oxy)cyclobutyl) (isopropyl)amino)methyl)-2-azaspiro[3.3]heptan-2-yl)pyrimidine-5-carboxamide], the DC50 was less than 1 nM.

In the case of `CC(C)N(CC1CN(c2cnc(C(=O)N[C@H]3CC[C@H](Oc4ccc(C#N)c(Cl)c4)CC3)cn2)C1)[C@H]1C[C@H](Oc2ccc3c(c2)C(=O)N(C2CCC(=O)NC2=O)C3=O)C1` (stereo partly drawn) [Compound 37, N-((1r,4r)-4-(3-chloro-4-cyanophenoxy)cyclohexyl)-5-(3-((((1r,3r)-3-((2-(2,6-dioxopiperidin-3-yl)-1,3-dioxoisoindolin-5-yl)oxy)cyclobutyl) (isopropyl)amino)methyl)azetidin-1-yl)pyrazine-2-carboxamide], the DC50 was less than 1 nM.

As for `COc1cc(O[C@H]2CC[C@H](NC(=O)c3cnc(N4CCC(CN(C(C)C)[C@H]5C[C@H](Oc6cc(OC)c7c(c6)C(=O)N(C6CCC(=O)NC6=O)C7=O)C5)CC4)cn3)CC2)ccc1C#N` (stereo partly drawn) [Compound 38, N-((1r,4r)-4-(4-cyano-3-methoxyphenoxy)cyclohexyl)-5-(4-((((1r,3r)-3-((2-(2,6-dioxopiperidin-3-yl)-7-methoxy-1,3-dioxoisoindolin-5-yl)oxy)cyclobutyl) (isopropyl)amino)methyl)piperidin-1-yl)pyrazine-2-carboxamide], the DC50 is less than 1 nM.

Regarding `COc1cc(O[C@H]2CC[C@H](NC(=O)c3cnc(N4CCC(CN(C)[C@H]5C[C@H](Oc6ccc7c(c6)C(=O)N(C6CCC(=O)NC6=O)C7=O)C5)CC4)cn3)CC2)ccc1C#N` (stereo partly drawn) [Compound 39, N-((1r,4r)-4-(4-cyano-3-methoxyphenoxy)cyclohexyl)-5-(4-((((1r,3r)-3-((2-(2,6-dioxopiperidin-3-yl)-1,3-dioxoisoindolin-5-yl)oxy)cyclobutyl) (methyl)amino)methyl)piperidin-1-yl)pyrazine-2-carboxamide], the DC50 was less than 1 nM.

Take `CC(C)Oc1cc(N2CCN(CC3CCN(c4ccc(C(=O)N[C@H]5CC[C@H](Oc6ccc(C#N)c(Cl)c6)CC5)nn4)CC3)CC2)cc2c1C(=O)N(C1CCC(=O)NC1=O)C2=O` (stereo partly drawn) [Compound 40, N-((1r,4r)-4-(3-chloro-4-cyanophenoxy)cyclohexyl)-6-(4-((4-(2-(2,6-dioxopiperidin-3-yl)-7-isopropoxy-1,3-dioxoisoindolin-5-yl)piperazin-1-yl)methyl)piperidin-1-yl)pyridazine-3-carboxamide]: the DC50 was less than 1 nM.

Take `CC(C)N(CC1CCN(c2cnc(C(=O)N[C@H]3CC[C@H](Oc4ccc(C#N)c(Cl)c4)CC3)cn2)CC1)[C@H]1C[C@H](Oc2ccc3c(c2)C(=O)N(C2CCC(=O)NC2=O)C3)C1` (stereo partly drawn) [Compound 41, N-((1r,4r)-4-(3-chloro-4-cyanophenoxy)cyclohexyl)-5-(4-((((1r,3r)-3-((2-(2,6-dioxopiperidin-3-yl)-3-oxoisoindolin-5-yl)oxy)cyclobutyl) (isopropyl)amino)methyl)piperidin-1-yl)pyrazine-2-carboxamide]: the DC50 is less than 1 nM.

As for `CC(C)N(CC1CCN(c2cnc(C(=O)N[C@H]3CC[C@H](Oc4ccc(C#N)c(Cl)c4)CC3)cn2)CC1)[C@H]1C[C@H](Oc2cc(F)c3c(c2)C(=O)N(C2CCC(=O)NC2=O)C3=O)C1` (stereo partly drawn) [Compound 42, N-((1r,4r)-4-(3-chloro-4-cyanophenoxy)cyclohexyl)-5-(4-((((1r,3r)-3-((2-(2,6-dioxopiperidin-3-yl)-7-fluoro-1,3-dioxoisoindolin-5-yl)oxy)cyclobutyl) (isopropyl)amino)methyl)piperidin-1-yl)pyrazine-2-carboxamide], the 50% degradation concentration (DC50) was less than 1 nM.

For `CCOc1cc(O[C@H]2CC[C@H](NC(=O)c3cnc(N4CC(CN(C(C)C)[C@H]5C[C@H](Oc6ccc7c(c6)C(=O)N(C6CCC(=O)NC6=O)C7=O)C5)C4)cn3)CC2)ccc1C#N` (stereo partly drawn) [Compound 43, N-((1r,4r)-4-(4-cyano-3-ethoxyphenoxy)cyclohexyl)-5-(3-((((1r,3r)-3-((2-(2,6-dioxopiperidin-3-yl)-1,3-dioxoisoindolin-5-yl)oxy)cyclobutyl) (isopropyl)amino)methyl)azetidin-1-yl)pyrazine-2-carboxamide], the DC50 is less than 1 nM.

Turning to `CC(C)Oc1cc(O[C@H]2C[C@H](N(CC3CCN(c4cnc(C(=O)N[C@H]5CC[C@H](Oc6ccc(C#N)c(Cl)c6)CC5)cn4)CC3)C(C)C)C2)cc2c1C(=O)N(C1CCC(=O)NC1=O)C2=O` (stereo partly drawn) [Compound 44, N-((1r,4r)-4-(3-chloro-4-cyanophenoxy)cyclohexyl)-5-(4-((((1r,3r)-3-((2-(2,6-dioxopiperidin-3-yl)-7-isopropoxy-1,3-dioxoisoindolin-5-yl)oxy)cyclobutyl) (isopropyl)amino)methyl)piperidin-1-yl)pyrazine-2-carboxamide], the DC50 is less than 1 nM.

On to `CC(C)N(CC1CCN(c2cnc(C(=O)N[C@H]3CC[C@H](Oc4ccc(C#N)c(Cl)c4)CC3)cn2)CC1)[C@H]1C[C@H](Oc2c(F)cc3c(c2F)C(=O)N(C2CCC(=O)NC2=O)C3=O)C1` (stereo partly drawn) [Compound 45, N-((1r,4r)-4-(3-chloro-4-cyanophenoxy)cyclohexyl)-5-(4-((((1r,3r)-3-((2-(2,6-dioxopiperidin-3-yl)-4,6-difluoro-1,3-dioxoisoindolin-5-yl)oxy)cyclobutyl) (isopropyl)amino)methyl)piperidin-1-yl)pyrazine-2-carboxamide], for which the DC50 is less than 1 nM.

As for `Cc1cc(O[C@H]2CC[C@H](NC(=O)c3cnc(N4CCC(CN(C(C)C)[C@H]5C[C@H](Oc6cc(F)c7c(c6)C(=O)N(C6CCC(=O)NC6=O)C7=O)C5)CC4)cn3)CC2)cc(C)c1C#N` (stereo partly drawn) [Compound 46, N-((1r,4r)-4-(4-cyano-3,5-dimethylphenoxy)cyclohexyl)-5-(4-((((1r,3r)-3-((2-(2,6-dioxopiperidin-3-yl)-7-fluoro-1,3-dioxoisoindolin-5-yl)oxy)cyclobutyl) (isopropyl)amino)methyl)piperidin-1-yl)pyrazine-2-carboxamide], the DC50 is less than 1 nM.
